Measurements published in patent publication US6841519B1, “Isoxazoline derivatives and herbicides containing the same as the active ingredient” (Kumiai Chemical Industry Co., Ltd., priority 1999, dated 2005).

Legend:
Format in all cases: in vivo
[1] = system: Echinochloa oryzicola Vasing. (Eo); experiment: Test for herbicidal effect by paddy field soil treatment (Test Example 1); details: application amount (active ingredient) 100 g/10 a, examined at the 21st day from the treatment, index per Table 40
Protocol: <Test Example 1> Test For Herbicidal Effect By Paddy Field Soil Treatment A paddy field soil was filled in a plastic pot of 100 cm^2 and subjected to puddling. Then, seeds of Echinochloa oryzicola Vasing. (Eo) were sowed and water was filled in a depth of 3 cm. Next day, wettable powders produced in accordance with the Formulation 1 were diluted with water and dropped on the water surface. The application amount of each wettable powder was 100 g per 10 ares in terms of the active ingredient. Then, breeding was made in a greenhouse, and the herbicidal effect of each wettable powder was examined at the 21st day from the treatment in accordance with the standard shown in Table 40. [table]

[2] = system: Echinochloa crus-galli (L.) Beauv. var. crusgalli (Ec); experiment: Test for herbicidal effect by upland foliage treatment (Test Example 3); details: 100 g/10 a active ingredient, examined at 14th day
Protocol: Test For Herbicidal Effect By Upland Foliage Treatment
An upland field soil was filed in a plastic pot of 80 cm^2. Seeds of Echinochloa crus-galli (L.) Beauv. var. crusgalli (Ec) were sowed. Breeding was made in a greenhouse for 2 weeks. Wettable powders produced in accordance with the Formulation 1 were diluted with water and sprayed on the whole foliage of plants from above the plants using a small sprayer in an amount of 100 liters per 10 ares so that the amount of each active ingredient became 100 g per 10 ares. Then, breeding was made in the greenhouse, and the herbicidal effect of each wettable powder was examined at the 14th day from the treatment in accordance with the standard shown in Table 40.

[3] = system: Echinochloa crus-galli (L.) Beauv. var. crusgall (Ec); experiment: Test for herbicidal effect by upland field soil treatment (Test Example 2), Ec
Protocol: (§1) [table] <Test Example 2> Test For Herbicidal Effect By Upland Field Soil Treatment An upland field soil was filed in a plastic pot of 80 cm^2. Seeds of Echinochloa crus-galli (L.) Beauv. var. crusgall (Ec) and Setaria viridis (L.) Beauv. (Se) were sowed, followed by covering with the same soil. Wettable powders produced in accordance with the Formulation 1 were diluted with water and sprayed uniformly: on the soil surface using a small sprayer, in an amount of 100 liters per 10 ares so that the amount of each active ingredient became 100 g per 10 ares. Then, breeding was made in a greenhouse, and the herbicidal effect of each wettable powder was examined at the 21st day from the treatment in accordance with the standard shown in Table 40.

[4] = system: Setaria viridis (L.) Beauv. (Se); experiment: Test for herbicidal effect by upland field soil treatment (Test Example 2), Se
Protocol: as §1

[5] = application amount (active ingredient) 100 g/10 a, examined at the 21st day from the treatment, index per Table 40
[6] = 100 g/10 a active ingredient, examined at 21st day

| Compound | Herbicidal effect to Eo [1] | Herbicidal effect to Ec [2] | Herbicidal effect to Ec [3, 5] | Herbicidal effect to Se [4, 5] | Herbicidal effect to Ec [3, 6] | Herbicidal effect to Se [4, 6] |
| --- | --- | --- | --- | --- | --- | --- |
| COCC1(C)CC(S(=O)(=O)Cc2c(F)cccc2F)=NO1 (stereo not drawn) [Compound 1-397] | 5 (A herbicidal effect or phytotoxicity of 90% or more) | 4 (A herbicidal effect or phytotoxicity of 70% to less than 90%) | – | – | – | – |
| CCOc1ccccc1CS(=O)(=O)C1=NOC(C)(C)C1 [Compound 1-43] | 5 (A herbicidal effect or phytotoxicity of 90% or more) | 5 (A herbicidal effect or phytotoxicity of 90% or more) | 5 (A herbicidal effect or phytotoxicity of 90% or more) | 5 (A herbicidal effect or phytotoxicity of 90% or more) | – | – |
| C#CCOc1cccc(F)c1CS(=O)(=O)C1=NOC(C)(C)C1 [Compound 1-576] | 5 (A herbicidal effect or phytotoxicity of 90% or more) | 5 (A herbicidal effect or phytotoxicity of 90% or more) | – | – | 5 (A herbicidal effect or phytotoxicity of 90% or more) | 5 (A herbicidal effect or phytotoxicity of 90% or more) |
| COc1cc(CS(=O)(=O)C2=NOC(C)(C)C2)cc(OC)c1 [Compound 1-524] | 5 (A herbicidal effect or phytotoxicity of 90% or more) | 5 (A herbicidal effect or phytotoxicity of 90% or more) | – | – | 5 (A herbicidal effect or phytotoxicity of 90% or more) | 5 (A herbicidal effect or phytotoxicity of 90% or more) |
| CC1(C)CC(S(=O)(=O)Cc2cccc(OC(F)(F)F)c2)=NO1 [Compound 1-59] | 5 (A herbicidal effect or phytotoxicity of 90% or more) | 5 (A herbicidal effect or phytotoxicity of 90% or more) | 5 (A herbicidal effect or phytotoxicity of 90% or more) | 5 (A herbicidal effect or phytotoxicity of 90% or more) | – | – |
| CC1ON=C(S(=O)(=O)Cc2c(F)cccc2F)C1C (stereo not drawn) [Compound 1-496] | 5 (A herbicidal effect or phytotoxicity of 90% or more) | 5 (A herbicidal effect or phytotoxicity of 90% or more) | 5 (A herbicidal effect or phytotoxicity of 90% or more) | 4 (A herbicidal effect or phytotoxicity of 70% to less than 90%) | – | – |
| CC1(C)CC(S(=O)(=O)Cc2ccc(F)c(F)c2)=NO1 [Compound 1-497] | 5 (A herbicidal effect or phytotoxicity of 90% or more) | 5 (A herbicidal effect or phytotoxicity of 90% or more) | 5 (A herbicidal effect or phytotoxicity of 90% or more) | 5 (A herbicidal effect or phytotoxicity of 90% or more) | – | – |
| CC1(C)CC(S(=O)(=O)Cc2cccc(Cl)c2Cl)=NO1 [Compound 1-487] | 5 (A herbicidal effect or phytotoxicity of 90% or more) | 4 (A herbicidal effect or phytotoxicity of 70% to less than 90%) | 5 (A herbicidal effect or phytotoxicity of 90% or more) | 5 (A herbicidal effect or phytotoxicity of 90% or more) | – | – |
| CC1(C)CC(S(=O)(=O)Cc2ccc(Cl)cc2)=NO1 [Compound 1-4] | 5 (A herbicidal effect or phytotoxicity of 90% or more) | 4 (A herbicidal effect or phytotoxicity of 70% to less than 90%) | 5 (A herbicidal effect or phytotoxicity of 90% or more) | 5 (A herbicidal effect or phytotoxicity of 90% or more) | – | – |
| CC1(C)CC(S(=O)(=O)Cc2cc(Cl)cc(Cl)c2)=NO1 [Compound 1-492] | 5 (A herbicidal effect or phytotoxicity of 90% or more) | 4 (A herbicidal effect or phytotoxicity of 70% to less than 90%) | 5 (A herbicidal effect or phytotoxicity of 90% or more) | 5 (A herbicidal effect or phytotoxicity of 90% or more) | – | – |
| CC1(C)CC(S(=O)(=O)Cc2c(Cl)cccc2Cl)=NO1 [Compound 1-490] | 5 (A herbicidal effect or phytotoxicity of 90% or more) | 4 (A herbicidal effect or phytotoxicity of 70% to less than 90%) | 5 (A herbicidal effect or phytotoxicity of 90% or more) | 4 (A herbicidal effect or phytotoxicity of 70% to less than 90%) | – | – |
| CCC1(C)CC(S(=O)(=O)Cc2c(F)cccc2F)=NO1 (stereo not drawn) [Compound 1-200, 5-ethyl-3-(2,6-difluorobenzylsulfonyl)-5-methyl-2-isoxazoline] | 5 (A herbicidal effect or phytotoxicity of 90% or more) | 4 (A herbicidal effect or phytotoxicity of 70% to less than 90%) | 5 (A herbicidal effect or phytotoxicity of 90% or more) | 5 (A herbicidal effect or phytotoxicity of 90% or more) | – | – |
| CC1(C)CC(S(=O)(=O)Cc2cccc(F)c2F)=NO1 [Compound 1-504] | 5 (A herbicidal effect or phytotoxicity of 90% or more) | 5 (A herbicidal effect or phytotoxicity of 90% or more) | – | – | 5 (A herbicidal effect or phytotoxicity of 90% or more) | 5 (A herbicidal effect or phytotoxicity of 90% or more) |
| Cc1ccc(C)c(CS(=O)(=O)C2=NOC(C)(C)C2)c1C [Compound 1-616] | 5 (A herbicidal effect or phytotoxicity of 90% or more) | 5 (A herbicidal effect or phytotoxicity of 90% or more) | – | – | 5 (A herbicidal effect or phytotoxicity of 90% or more) | – |
| COc1cccc(Cl)c1CS(=O)(=O)C1=NOC(C)(C)C1 [Compound 1-563] | 5 (A herbicidal effect or phytotoxicity of 90% or more) | 4 (A herbicidal effect or phytotoxicity of 70% to less than 90%) | – | – | 5 (A herbicidal effect or phytotoxicity of 90% or more) | 5 (A herbicidal effect or phytotoxicity of 90% or more) |
| CCCCOc1cccc(F)c1CS(=O)(=O)C1=NOC(C)(C)C1 [Compound 1-571] | 5 (A herbicidal effect or phytotoxicity of 90% or more) | 5 (A herbicidal effect or phytotoxicity of 90% or more) | – | – | 5 (A herbicidal effect or phytotoxicity of 90% or more) | – |
| C#CCOc1cccc(Cl)c1CS(=O)(=O)C1=NOC(C)(C)C1 [Compound 1-591] | 5 (A herbicidal effect or phytotoxicity of 90% or more) | 4 (A herbicidal effect or phytotoxicity of 70% to less than 90%) | – | – | 5 (A herbicidal effect or phytotoxicity of 90% or more) | 5 (A herbicidal effect or phytotoxicity of 90% or more) |
| CCc1cccc(C)c1CS(=O)(=O)C1=NOC(C)(C)C1 [Compound 1-525] | 5 (A herbicidal effect or phytotoxicity of 90% or more) | 5 (A herbicidal effect or phytotoxicity of 90% or more) | – | – | 5 (A herbicidal effect or phytotoxicity of 90% or more) | 5 (A herbicidal effect or phytotoxicity of 90% or more) |
| CC1(C)CC(S(=O)(=O)Cc2c(Cl)cccc2OC(F)F)=NO1 [Compound 1-561] | 5 (A herbicidal effect or phytotoxicity of 90% or more) | 4 (A herbicidal effect or phytotoxicity of 70% to less than 90%) | – | – | 5 (A herbicidal effect or phytotoxicity of 90% or more) | 5 (A herbicidal effect or phytotoxicity of 90% or more) |
| CCOC(=O)c1ccccc1CS(=O)(=O)C1=NOC(C)(C)C1 [Compound 1-593] | 5 (A herbicidal effect or phytotoxicity of 90% or more) | 4 (A herbicidal effect or phytotoxicity of 70% to less than 90%) | – | – | 5 (A herbicidal effect or phytotoxicity of 90% or more) | 4 (A herbicidal effect or phytotoxicity of 70% to less than 90%) |
| CCOc1cccc(Cl)c1CS(=O)(=O)C1=NOC(C)(C)C1 [Compound 1-564] | 5 (A herbicidal effect or phytotoxicity of 90% or more) | 4 (A herbicidal effect or phytotoxicity of 70% to less than 90%) | – | – | 5 (A herbicidal effect or phytotoxicity of 90% or more) | 5 (A herbicidal effect or phytotoxicity of 90% or more) |
| CC1(C)CC(S(=O)(=O)Cc2ccc(Br)cc2F)=NO1 [Compound 1-516] | 5 (A herbicidal effect or phytotoxicity of 90% or more) | 5 (A herbicidal effect or phytotoxicity of 90% or more) | – | – | 5 (A herbicidal effect or phytotoxicity of 90% or more) | 5 (A herbicidal effect or phytotoxicity of 90% or more) |
